This is an account of results in article PMC4666649, “The Influence of the 1-(3-Trifluoromethyl-Benzyl)-1H-Pyrazole-4-yl Moiety on the Adenosine Receptors Affinity Profile of Pyrazolo[4,3-e][1,2,4]Triazolo[1,5-c]Pyrimidine Derivatives” (PLoS ONE, 2015).

Data set [1] deals with T1, hA3 AR (Homo sapiens, UniProt P0DMS8).
T1 construct: expressed in transfected cells; host or cells: CHO cells, stably transfected
T1 sequence (P0DMS8 1-318): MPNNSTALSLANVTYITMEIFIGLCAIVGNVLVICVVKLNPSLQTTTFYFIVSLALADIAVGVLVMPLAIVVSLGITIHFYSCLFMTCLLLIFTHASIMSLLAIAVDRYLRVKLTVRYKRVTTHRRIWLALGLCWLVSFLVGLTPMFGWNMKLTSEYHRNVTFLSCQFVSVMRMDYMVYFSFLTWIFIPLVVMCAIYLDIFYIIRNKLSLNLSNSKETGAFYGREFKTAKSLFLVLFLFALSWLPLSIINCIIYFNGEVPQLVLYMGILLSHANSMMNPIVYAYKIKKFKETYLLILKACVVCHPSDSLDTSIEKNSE
Conditions: cited from earlier work; for Ki: reference xanthines.

A further data set concerns the target T2, hA1 AR (Homo sapiens, UniProt P30542).
T2 sequence (P30542 1-326): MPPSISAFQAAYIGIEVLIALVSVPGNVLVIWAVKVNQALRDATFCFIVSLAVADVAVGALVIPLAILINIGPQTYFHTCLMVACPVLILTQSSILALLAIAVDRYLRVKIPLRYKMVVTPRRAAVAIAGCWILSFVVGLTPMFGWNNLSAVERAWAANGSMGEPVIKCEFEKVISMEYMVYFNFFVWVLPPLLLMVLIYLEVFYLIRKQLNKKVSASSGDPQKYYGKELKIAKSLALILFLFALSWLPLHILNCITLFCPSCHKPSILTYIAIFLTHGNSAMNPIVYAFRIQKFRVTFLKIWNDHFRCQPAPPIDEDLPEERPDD
As to the kind of experiment: Radioligand binding at human A1 ARs, displacement of [3H]CCPA, membranes of transfected CHO cells. In general terms: Loss of bound radioactivity is the signal in a displacement assay; it reports binding, not function.

Data set [2] addresses T3, hA2A AR (Homo sapiens, UniProt P29274).
T3 construct: expressed in transfected cells; host or cells: CHO cells, stably transfected
Nature of the data set: Radioligand binding at human A2A ARs, displacement of [3H]NECA, membranes of transfected CHO cells.
Description: (§1) All pharmacological methods followed the procedures as described earlier. […] In brief, membranes for radioligand binding were prepared from CHO cells stably transfected with human AR subtypes in a two-step procedure. In a first low-speed step (1,000 x g) cell fragments and nuclei were removed. The crude membrane fraction was sedimented from the supernatant at 100,000 x g. The membrane pellet was resuspended in the buffer used for the respective binding experiments (50 mM Tris/HCl buffer pH 7.4 for hA1 and hA2A AR; 50 mM Tris/HCl, 10 mM MgCl2, 1 mM EDTA, pH 8.25 for hA3 AR), frozen in liquid nitrogen and stored at -80°C.
(§2) Ki-values from competition experiments were calculated with the program SCTFIT.

The target in a further data set is T4, hA2B AR (Homo sapiens, UniProt P29275).
T4 construct: expressed in transfected cells; host or cells: CHO cells, stably transfected
T4 sequence (P29275 1-332): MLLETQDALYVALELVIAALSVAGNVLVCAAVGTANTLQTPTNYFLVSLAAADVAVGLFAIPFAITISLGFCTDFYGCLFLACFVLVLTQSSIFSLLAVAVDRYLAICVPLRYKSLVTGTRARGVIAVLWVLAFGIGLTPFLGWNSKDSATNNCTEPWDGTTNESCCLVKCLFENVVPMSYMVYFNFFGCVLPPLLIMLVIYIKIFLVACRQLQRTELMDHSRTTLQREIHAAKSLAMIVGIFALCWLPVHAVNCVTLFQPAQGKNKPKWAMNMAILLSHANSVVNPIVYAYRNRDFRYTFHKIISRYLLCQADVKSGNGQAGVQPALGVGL
Nature of the data set: Inhibition of NECA-stimulated adenylyl cyclase activity in CHO cells expressing hA2B ARs. Format: biochemical.

For data set [3], the target named is T1, hA3 AR. Nature of the data set: Radioligand binding at human A3 ARs, displacement of [3H]HEMADO, membranes of transfected CHO cells. Conditions: for Ki, hA2a/hA3 (selectivity) / Ki, hA2b/hA3 (selectivity) / Ki, hA1/hA3 (selectivity): ratio of Ki values, for reference compounds from literature affinities (Borea et al. unless otherwise indicated).
Description: as §1, §2
Data set [4] deals with T3, hA2A AR. Conditions: reference xanthines; cited from earlier work.
The mark [5] stands for this setting: displacement of specific [3H]-CCPA binding, CHO cells, n = 3–6, geometric means with 95% confidence limits, read-out: hA1 AR (Ki nM).
[6] abbreviates: displacement of specific [3H]-NECA binding, CHO cells, geometric means with 95% confidence limits, read-out: hA2A AR (Ki nM).
Setting [7] is: displacement of specific [3H]-HEMADO binding, CHO cells, geometric means with 95% confidence limits, read-out: hA3 AR (Ki nM).
Setting [8] is: competition for [3H]HEMADO, total binding, single experiment (S1 Fig), read-out: Ki, hA3 AR, representative single experiment.

Structures can show the parent of a compound that is named as a salt. Where two headings read alike, the source gives them in different places.

T3 sequence (P29274 whole entry): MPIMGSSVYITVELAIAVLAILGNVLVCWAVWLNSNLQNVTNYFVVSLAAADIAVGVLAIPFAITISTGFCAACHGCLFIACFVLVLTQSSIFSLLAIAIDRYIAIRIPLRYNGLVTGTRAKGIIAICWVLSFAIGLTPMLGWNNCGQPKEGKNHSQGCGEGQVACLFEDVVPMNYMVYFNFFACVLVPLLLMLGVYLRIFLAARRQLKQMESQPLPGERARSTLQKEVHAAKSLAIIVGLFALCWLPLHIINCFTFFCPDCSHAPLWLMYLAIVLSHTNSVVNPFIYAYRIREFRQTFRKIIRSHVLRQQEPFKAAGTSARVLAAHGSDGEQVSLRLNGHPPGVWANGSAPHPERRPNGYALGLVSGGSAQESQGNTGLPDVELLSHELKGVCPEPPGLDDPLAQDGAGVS
Description for hA1 AR: as §1, §2
Description for hA2B AR: All pharmacological methods followed the procedures as described earlier. […] For the measurement of adenylyl cyclase activity only one high speed centrifugation of the homogenate was used. The resulting crude membrane pellet was resuspended in 50 mM Tris/HCl, pH 7.4 and immediately used for the cyclase assay.
The procedure was carried out as described previously with minor modifications. […] Membranes were incubated with about 150,000 cpm of [α-^32P]ATP for 20 min in the incubation mixture as described without EDTA and NaCl.

Regarding `CCCCC#Cc1nc(NC)c2ncn([C@@H]3O[C@H](CO)[C@@H](O)[C@H]3O)c2n1` [[^3H]HEMADO, [^3H]2-(1-Hexynyl)-N-methyladenosine], the Kd on hA3 AR [1] (radioligand used at 1 nM, read-out: KD of radioligand at A3 AR) was 1.1 nM.
Consider `COc1ccc(CC(=O)Nc2nc3nn(C)cc3c3nc(-c4cnn(Cc5cccc(C(F)(F)F)c5)c4)nn23)cc1` [compound 7], for which the melting point was 178 °C. In addition, the Ki at hA1 AR (setting [5]) came out at 4390 nM. Further, on hA2A AR [2] (setting [6]), the Ki stood at 20500 nM. The molecule also came in with an inhibition constant (Ki) at hA2B AR above 10000 nM. For the same molecule, the Ki at hA3 AR [3] (setting [7]) was 53 nM.
Molecule `Cn1cc2c(nc(NC(=O)Cc3ccccc3)n3nc(-c4cnn(Cc5cccc(C(F)(F)F)c5)c4)nc23)n1` [compound 6, N-{8-Methyl-2-[1-(3-trifluoromethyl-benzyl)-1H-pyrazol-4-yl]-8H-pyrazolo[4,3-e][1,2,4]triazolo[1,5-c]pyrimidin-5-yl}-phenyl-acetamide] displayed a melting point of 190 °C. At hA1 AR (setting [5]), the Ki was above 100000 nM. Also, the Ki on hA2A AR [2] (setting [6]) is above 100000 nM. The Ki on hA2B AR was above 10000 nM. Further, the Ki on hA3 AR [3] (setting [8]) came to 17 nM. Besides, the Ki at hA3 AR [3] (setting [7]) was determined as 11 nM. For the same molecule, at hA3 AR [3], the “Ki, hA2a/hA3 (selectivity)” value is above 9091 and the “Ki, hA2b/hA3 (selectivity)” value is reported as above 909.
Turning to `CCCn1c(=O)c2[nH]c(-c3cnn(Cc4cccc(C(F)(F)F)c4)c3)nc2n(CCC)c1=O` [compound 33, reference compound], at hA3 AR [3], the “Ki, hA1/hA3 (selectivity)” value is 3 and the “Ki, hA2a/hA3 (selectivity)” value stood at 4. The Ki at hA2A AR [4] is 230 nM. Also, at hA3 AR [1], the Ki was 56 nM.
Turning to `Cn1c(=O)c2[nH]c(-c3cnn(Cc4cccc(C(F)(F)F)c4)c3)nc2n(C)c1=O` [compound 1, 8-(1-(3-(trifluoromethyl)benzyl)-1H-pyrazol-4-yl)-1,3-dimethyl-1H-purine-2,6(3H,7H)-dione, reference compound], at hA3 AR [3], the “Ki, hA1/hA3 (selectivity)” value is given as 1 and the “Ki, hA2a/hA3 (selectivity)” value is listed as 1.
The molecule `Cn1cc2c(nc(N)n3nc(-c4cnn(Cc5cccc(C(F)(F)F)c5)c4)nc23)n1` [compound 3, 8-methyl-2-[1-(3-trifluoromethyl-benzyl)-1H-pyrazol-4-yl]-8H-pyrazolo[4,3-e][1,2,4]triazolo[1,5-c]pyrimidin-5-ylamine] displayed a melting point of 125 °C. Also, the inhibitory constant (Ki) on hA1 AR (competition with [3H]CCPA, total binding, single experiment (S2 Fig), read-out: Ki, hA1 AR, representative single experiment) was 764 nM. Further, the “hA1 AR (Ki nM)” value on hA1 AR (displacement of specific [3H]-CCPA binding, CHO cells, n = 3–6, geometric means with 95% confidence limits) is “almost inactive”. For the same molecule, the Ki at hA1 AR (setting [5]) was determined as 703 nM. For the same molecule, at hA2A AR [2] (competition with [3H]NECA, total binding, single experiment (S3 Fig), read-out: Ki, hA2A AR, representative single experiment), the inhibition constant Ki worked out at 6820 nM. For the same molecule, at hA2A AR [2] (displacement of specific [3H]-NECA binding, CHO cells, geometric means with 95% confidence limits), the “hA2A AR (Ki nM)” value was “almost inactive”. The Ki on hA2A AR [2] (setting [6]) amounted to 8280 nM. Also, on hA2B AR, the inhibition constant (Ki) was above 10000 nM and the “hA2B AR (Ki nM)” value was “almost inactive”. For the same molecule, the “hA3 AR (Ki nM)” value at hA3 AR [3] (displacement of specific [3H]-HEMADO binding, CHO cells, geometric means with 95% confidence limits) was “almost inactive”. Moreover, at hA3 AR [3] (setting [7]), the Ki is 2360 nM. At hA3 AR [3], the “Ki, hA2a/hA3 (selectivity)” value stood at 4 and the “Ki, hA2b/hA3 (selectivity)” value is 4.
For the molecule `Cn1cc2c(nc(NC(=O)Nc3ccncc3)n3nc(-c4ccco4)nc23)n1` [MRE3005F20 (HCl), reference compound], at hA3 AR [3], the “Ki, hA1/hA3 (selectivity)” value was found to be 35000; the “Ki, hA2a/hA3 (selectivity)” value came out at 10000; the “Ki, hA2b/hA3 (selectivity)” value came out at 25000.
With `Cn1cc2c(nc(NC(=O)c3ccccc3)n3nc(-c4cnn(Cc5cccc(C(F)(F)F)c5)c4)nc23)n1` [compound 5, N-{8-Methyl-2-[1-(3-trifluoromethyl-benzyl)-1H-pyrazol-4-yl]-8H-pyrazolo[4,3-e][1,2,4]triazolo[1,5-c]pyrimidin-5-yl}-benzamide], the Ki on hA1 AR (setting [5]) is 25500 nM; on hA2A AR [2] (setting [6]), above 100000 nM; on hA2B AR it was above 10000 nM; on hA3 AR [3] (setting [7]), 138 nM.
As to `Cn1cc2c(nc(NC(=O)Nc3ccccc3)n3nc(-c4cnn(Cc5cccc(C(F)(F)F)c5)c4)nc23)n1` [compound 4, 1-{8-Methyl-2-[1-(3-trifluoromethyl-benzyl)-1H-pyrazol-4-yl]-8H-pyrazolo[4,3-e][1,2,4]triazolo [1,5-c]pyrimidin-5-yl}-3-phenylurea], the Ki at hA1 AR (setting [5]) was 3890 nM; at hA2A AR [2] (setting [6]) it was 2460 nM; at hA2B AR, above 10000 nM; at hA3 AR [3] (setting [8]), 39 nM; on hA3 AR [3] (setting [7]), 46.7 nM.
`CCCn1c(=O)c2[nH]c(-c3cnn(Cc4cccc(F)c4)c3)nc2n(CCC)c1=O` [compound 36, reference compound]: on hA3 AR [3], the “Ki, hA1/hA3 (selectivity)” value is 1. The “Ki, hA2a/hA3 (selectivity)” value on hA3 AR [3] is listed as 3. Besides, the Ki on hA2A AR [4] is 400 nM; at hA3 AR [1] it was 150 nM.

For orientation: Kd means the constant that tells how readily two partners part at equilibrium. As usually defined, the Ki is the dissociation constant of the complex between target and ligand, obtained from inhibition or displacement. One may read the melting point as the temperature of the solid-liquid transition.
